Data taken from US8952024B2, “Herbicidal pyrimidone derivatives” (E I du Pont de Nemours and Company, priority 2009, dated 2015).

Tests used:
Assay type in all cases: in vivo
[1] = system: wheat (Triticum aestivum); experiment: Test A pre-/postemergence plant response
Summary of the method: (§1)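 Plants grown from seed in a loam soil and sand mix received test compounds both as a preemergence soil spray and, at the same time, as a postemergence spray at the one- to two-leaf stage. Injury was judged visually against untreated controls roughly ten days later, 0 meaning no effect and 100 complete control.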

[2] = system: giant foxtail (Setaria faberii); experiment: Test A pre-/postemergence plant response
Summary of the method: as §1

[3] = system: barnyardgrass (Echinochloa crus-galli); experiment: Test A pre-/postemergence plant response
Summary of the method: as §1

[4] = system: large crabgrass (Digitaria sanguinalis); experiment: Test A pre-/postemergence plant response
Summary of the method: as §1

[5] = system: velvetleaf (Abutilon theophrasti); experiment: Test A pre-/postemergence plant response
Summary of the method: as §1

[6] = system: morningglory (Ipomoea spp.); experiment: Test A pre-/postemergence plant response
Summary of the method: as §1

corn (Zea mays) = experiment: Test A pre-/postemergence plant response
Summary of the method: as §1

[7] = system: pigweed (Amaranthus retroflexus); experiment: Test A pre-/postemergence plant response
Summary of the method: as §1

[8] = system: winter barley (Hordeum vulgare); experiment: Test B postemergence plant response; settings: for Barley plant response rating (0 to 100 scale): 62 g ai/ha, 0 is no effect, 13 to 15 days
Summary of the method: (§2)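 Plants grown in peat/vermiculite medium were sprayed postemergence at 2–18 cm height (1- to 4-leaf stage). After 13–15 days in the greenhouse, response was rated visually against untreated controls on a 0–100 scale (0 no effect, 100 complete control).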

[9] = system: windgrass (Apera spica-venti); experiment: Test B postemergence plant response; settings: for Windgrass plant response rating (0 to 100 scale): 62 g ai/ha, postemergence, 0 is no effect, 100 is complete control, 13 to 15 days; for Plant response rating, Windgrass: Postemergence, 125 g ai/ha, scale 0 to 100 (0 no effect, 100 complete control)
Summary of the method: as §2

[10] = system: canarygrass (Phalaris minor); experiment: Test B postemergence plant response; settings: for Canarygrass plant response rating (0 to 100 scale): 62 g ai/ha, 0 is no effect, 13 to 15 days
Summary of the method: as §2

[11] = system: chickweed (Stellaria media); experiment: Test B postemergence plant response; settings: for Chickweed plant response rating (0 to 100 scale): 62 g ai/ha, 0 is no effect, 13 to 15 days
Summary of the method: as §2

[12] = Postemergence, 125 g ai/ha, 0 to 100 scale where 0 is no effect and 100 is complete control
[13] = Postemergence, 500 g ai/ha, 0 to 100 scale, 0 = no effect, 100 = complete control, approx. ten days
[14] = Preemergence, 125 g ai/ha, 0 to 100 scale, 0 = no effect, 100 = complete control
[15] = Preemergence, 500 g ai/ha, visual injury, 0 to 100 scale (0 no effect, 100 complete control), approx. ten days
[16] = 31 g ai/ha, postemergence, scale 0 to 100, 0 is no effect, 100 is complete control
[17] = postemergence, 100 is complete control
[18] = Postemergence, 125 g ai/ha, scale 0 to 100 (0 no effect, 100 complete control)
[19] = Postemergence, 250 g ai/ha, scale 0 to 100 (0 no effect, 100 complete control)

## COCCn1c(-c2cccc(C)c2)ncc(C(=O)C2=C(O)CCCC2=O)c1=O [Compound 117]
[1]; [12]
  Plant response rating, Wheat: 0
[1]; [13]
  Plant response rating, Wheat: 30
[1]; [14]
  Plant response rating, Wheat: 0
[1]; [15]
  Plant response rating, Wheat: 20
[2]; [12]
  Plant response rating, Foxtail, Giant: 70
[2]; [13]
  Plant response rating, Foxtail, Giant: 80
[2]; [14]
  Plant response rating, Foxtail, Giant: 20
[2]; [15]
  Plant response rating, Foxtail, Giant: 70
[3]; [12]
  Plant response rating, Barnyardgrass: 80
[3]; [13]
  Plant response rating, Barnyardgrass: 90
[3]; [14]
  Plant response rating, Barnyardgrass: 50
[3]; [15]
  Plant response rating, Barnyardgrass: 90
[4]; [12]
  Plant response rating, Crabgrass, Large: 80
[4]; [13]
  Plant response rating, Crabgrass, Large: 100
[4]; [14]
  Plant response rating, Crabgrass, Large: 60
[4]; [15]
  Plant response rating, Crabgrass, Large: 100
[5]; [12]
  Plant response rating, Velvetleaf: 100
[5]; [13]
  Plant response rating, Velvetleaf: 100
[5]; [14]
  Plant response rating, Velvetleaf: 70
[5]; [15]
  Plant response rating, Velvetleaf: 90
[6]; [12]
  Plant response rating, Morningglory: 100
[6]; [13]
  Plant response rating, Morningglory: 100
[6]; [14]
  Plant response rating, Morningglory: 40
[6]; [15]
  Plant response rating, Morningglory: 90
Corn (Zea mays); [12]
  Plant response rating, Corn: 20
Corn (Zea mays); [13]
  Plant response rating, Corn: 50
Corn (Zea mays); [14]
  Plant response rating, Corn: 0
Corn (Zea mays); [15]
  Plant response rating, Corn: 20
[7]; [12]
  Plant response rating, Pigweed: 100
[7]; [13]
  Plant response rating, Pigweed: 100
[7]; [14]
  Plant response rating, Pigweed: 90
[7]; [15]
  Plant response rating, Pigweed: 100
[8]; [16]
  Plant response rating, Barley: 0
[8]; [17]
  Barley plant response rating (0 to 100 scale): 0
[8]; [18]
  Plant response rating, Barley: 0
[8]; [19]
  Plant response rating, Barley: 0
[9]
  Windgrass plant response rating (0 to 100 scale): 45
  Plant response rating, Windgrass: 65
[10]; [16]
  Plant response rating, Canarygrass: 0
[10]; [17]
  Canarygrass plant response rating (0 to 100 scale): 0
[10]; [18]
  Plant response rating, Canarygrass: 5
[10]; [19]
  Plant response rating, Canarygrass: 5
[11]; [16]
  Plant response rating, Chickweed: 85
[11]; [17]
  Chickweed plant response rating (0 to 100 scale): 95
[11]; [18]
  Plant response rating, Chickweed: 98
[11]; [19]
  Plant response rating, Chickweed: 100

## COCCCn1c(-c2cccc(C)c2)ncc(C(=O)C2=C(O)CCCC2=O)c1=O [Compound 118, 5-[(2-hydroxy-6-oxo-1-cyclohexane-1-yl)carbonyl]-3-(3-methoxypropyl)-2-(3-methylphenyl)-4(3H)-pyrimidinone]
[1]; [12]
  Plant response rating, Wheat: 0
[1]; [13]
  Plant response rating, Wheat: 10
[1]; [14]
  Plant response rating, Wheat: 0
[1]; [15]
  Plant response rating, Wheat: 0
[2]; [12]
  Plant response rating, Foxtail, Giant: 80
[2]; [13]
  Plant response rating, Foxtail, Giant: 90
[2]; [14]
  Plant response rating, Foxtail, Giant: 10
[2]; [15]
  Plant response rating, Foxtail, Giant: 50
[3]; [12]
  Plant response rating, Barnyardgrass: 90
[3]; [13]
  Plant response rating, Barnyardgrass: 90
[3]; [14]
  Plant response rating, Barnyardgrass: 30
[3]; [15]
  Plant response rating, Barnyardgrass: 90
[4]; [12]
  Plant response rating, Crabgrass, Large: 90
[4]; [13]
  Plant response rating, Crabgrass, Large: 90
[4]; [14]
  Plant response rating, Crabgrass, Large: 60
[4]; [15]
  Plant response rating, Crabgrass, Large: 90
[5]; [12]
  Plant response rating, Velvetleaf: 100
[5]; [13]
  Plant response rating, Velvetleaf: 100
[5]; [14]
  Plant response rating, Velvetleaf: 70
[5]; [15]
  Plant response rating, Velvetleaf: 80
[6]; [12]
  Plant response rating, Morningglory: 100
[6]; [13]
  Plant response rating, Morningglory: 100
[6]; [14]
  Plant response rating, Morningglory: 10
[6]; [15]
  Plant response rating, Morningglory: 70
Corn (Zea mays); [12]
  Plant response rating, Corn: 0
Corn (Zea mays); [13]
  Plant response rating, Corn: 30
Corn (Zea mays); [14]
  Plant response rating, Corn: 0
Corn (Zea mays); [15]
  Plant response rating, Corn: 0
[7]; [12]
  Plant response rating, Pigweed: 100
[7]; [13]
  Plant response rating, Pigweed: 100
[7]; [14]
  Plant response rating, Pigweed: 90
[7]; [15]
  Plant response rating, Pigweed: 100
[8]; [16]
  Plant response rating, Barley: 0
[8]; [17]
  Barley plant response rating (0 to 100 scale): 0
[8]; [18]
  Plant response rating, Barley: 0
[8]; [19]
  Plant response rating, Barley: 0
[9]
  Windgrass plant response rating (0 to 100 scale): 60
  Plant response rating, Windgrass: 70
[10]; [16]
  Plant response rating, Canarygrass: 0
[10]; [17]
  Canarygrass plant response rating (0 to 100 scale): 0
[10]; [18]
  Plant response rating, Canarygrass: 10
[10]; [19]
  Plant response rating, Canarygrass: 15
[11]; [16]
  Plant response rating, Chickweed: 90
[11]; [17]
  Chickweed plant response rating (0 to 100 scale): 95
[11]; [18]
  Plant response rating, Chickweed: 95
[11]; [19]
  Plant response rating, Chickweed: 100
